Assay results taken from patent publication US20260356856A1, “KRAS G12S AND G12C INHIBITORS” (MIRATI THERAPEUTICS, INC., priority 2023, published 2026).

Key:
[1] = target: T1, KRas-mediated phosphorylation of ERK in H358 cells (Homo sapiens, UniProt P01116, G12C); experiment: Inhibition of KRas-mediated phosphorylation of ERK (HTRF), H358 cells; format: cell-based; details: HTRF pERK, 3 h incubation
T1 construct: pERK HTRF read-out

[2] = target: T2, KRas-mediated phosphorylation of ERK in MKN1 cells (Homo sapiens, UniProt P01116); experiment: Inhibition of KRas-mediated phosphorylation of ERK (HTRF), MKN1 cells; format: cell-based; details: MKN1 cells (KRas WT); HTRF pERK; 3 h incubation
T2 construct: pERK HTRF read-out
Experimental: Inhibition of KRas Phosphorylation of ERK (HTRF) by Exemplary Compounds of Formula (Ia) or (Ib)
Cisbio HTRF Advanced pERK Assay Catalog #64AERPEH • Cells: MKN1, PSN1 • Procedure: • 1. Day 1: Seed 6,000 cells/well −25 μl/well in 384-well white solid bottom plate; RPM1_10% FBS. Incubate overnight at 37 °C/5% CO2. • 2.

[3] = target: T3, KRas-mediated phosphorylation of ERK in A549 cells (Homo sapiens, UniProt P01116, G12S); experiment: Inhibition of KRas-mediated phosphorylation of ERK (HTRF), A549 cells; format: cell-based; details: HTRF pERK, 3 h incubation
T3 construct: pERK HTRF read-out

KRas G12S = target: T4, KRas G12S (Homo sapiens, UniProt P01116, G12S); experiment: KRas binding assay, TR-FRET displacement of Cy5 labelled tracer; details: 60-minute incubation at room temperature, 1% DMSO, pH 7.5
T4 construct: Biotinylated KRas (corresponding to amino acids 1-169, produced at Accelegan Inc.); biotin (biotinylated); purchased Accelegan Inc
Summary of the method: (§1)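 IC50 came from fitting POC values with a four-parameter equation. Signal was read after one hour at room temperature. Protein was biotin-tagged KRas 1-169 captured by terbium streptavidin, with compound in 1% DMSO (final).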

KRas G12C = target: T5, KRas G12C (Homo sapiens, UniProt P01116, G12C); experiment: as above; details: 60-minute incubation at room temperature, 1% DMSO, pH 7.5
T5 construct: Biotinylated KRas (corresponding to amino acids 1-169, produced at Accelegan Inc.); biotin (biotinylated); purchased Accelegan Inc
Summary of the method: as §1

KRas WT = target: T6, KRas WT (Homo sapiens, UniProt P01116); experiment: as above; details: 60-minute incubation at room temperature, 1% DMSO, pH 7.5
T6 construct: Biotinylated KRas (corresponding to amino acids 1-169, produced at Accelegan Inc.); biotin (biotinylated); purchased Accelegan Inc
Summary of the method: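 Truncated KRas (1-169), biotinylated, Tb-streptavidin donor; one-hour room-temperature incubation; IC50 by four-parameter curve fitting.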

T5 sequence (P01116 1-169 isoform P01116-2 G12C): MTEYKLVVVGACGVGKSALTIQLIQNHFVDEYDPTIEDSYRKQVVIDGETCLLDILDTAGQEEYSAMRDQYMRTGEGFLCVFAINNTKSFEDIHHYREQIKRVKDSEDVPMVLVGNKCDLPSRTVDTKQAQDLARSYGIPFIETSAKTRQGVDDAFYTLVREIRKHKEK
T2 sequence (P01116 1-188 isoform P01116-2): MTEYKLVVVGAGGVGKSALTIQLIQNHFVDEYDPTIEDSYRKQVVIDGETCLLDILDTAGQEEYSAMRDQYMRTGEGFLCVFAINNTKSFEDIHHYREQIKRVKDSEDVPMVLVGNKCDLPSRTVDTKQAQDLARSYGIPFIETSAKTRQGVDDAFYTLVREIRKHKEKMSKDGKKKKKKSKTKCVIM
T4 sequence (P01116 1-169 isoform P01116-2 G12S): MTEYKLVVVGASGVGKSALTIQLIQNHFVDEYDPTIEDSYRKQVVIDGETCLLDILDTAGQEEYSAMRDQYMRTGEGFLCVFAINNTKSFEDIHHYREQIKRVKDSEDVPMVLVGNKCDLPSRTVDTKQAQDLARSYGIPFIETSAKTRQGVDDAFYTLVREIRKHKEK
T1 sequence (P01116 1-188 isoform P01116-2 G12C): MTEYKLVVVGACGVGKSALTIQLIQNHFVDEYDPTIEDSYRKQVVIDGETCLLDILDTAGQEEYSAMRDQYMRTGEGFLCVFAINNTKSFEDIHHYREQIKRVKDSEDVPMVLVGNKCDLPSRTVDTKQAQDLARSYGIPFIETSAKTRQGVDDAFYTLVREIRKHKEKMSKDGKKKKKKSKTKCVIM
T6 sequence (P01116 1-169 isoform P01116-2): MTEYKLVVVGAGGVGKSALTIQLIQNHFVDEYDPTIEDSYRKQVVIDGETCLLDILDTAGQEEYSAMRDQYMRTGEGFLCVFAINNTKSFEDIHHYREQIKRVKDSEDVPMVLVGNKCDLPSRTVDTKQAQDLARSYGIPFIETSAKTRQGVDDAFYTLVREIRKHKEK
T3 sequence (P01116 1-188 isoform P01116-2 G12S): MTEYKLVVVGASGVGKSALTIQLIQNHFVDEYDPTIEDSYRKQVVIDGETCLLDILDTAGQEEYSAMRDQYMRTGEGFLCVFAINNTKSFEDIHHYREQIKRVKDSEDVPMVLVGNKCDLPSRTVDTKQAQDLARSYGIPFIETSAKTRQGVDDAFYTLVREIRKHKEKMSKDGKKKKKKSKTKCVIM

Row | Structure (SMILES) | IC50 [1] [nM] | IC50 [2] [nM] | IC50 [3] [nM] | IC50 (KRas G12S) [nM] | IC50 (KRas G12C) [nM] | IC50 (KRas WT) [nM]
1 | CCc1c(F)ccc2cc(O)cc(-c3ncc4c(N(C)C(C)CCC(=O)N(C)C(C)=O)nc(OC[C@@]56CCCN5C[C@H](F)C6)nc4c3F)c12 (stereo partly drawn) [Example 282, N-acetyl-4-((7-(8-ethyl-7-fluoro-3-hydroxynaphthalen-1-yl)-8-fluoro-2-(((2R,7aS)-2-fluorotetrahydro-1H-pyrrolizin-7a(5H)-yl)methoxy)pyrido[4,3-d]pyrimidin-4-yl)(methyl)amino)-N-methylpentanamide] | 1290 | 870 | 185 | 44 | 82 | 184
2 | CCc1c(F)ccc2cc(O)cc(-c3ncc4c(N(C)CC(C)CC(=O)N(C)C(C)=O)nc(OC[C@@]56CCCN5C[C@H](F)C6)nc4c3F)c12 (stereo partly drawn) [Example 283, N-acetyl-4-((7-(8-ethyl-7-fluoro-3-hydroxynaphthalen-1-yl)-8-fluoro-2-(((2R,7aS)-2-fluorotetrahydro-1H-pyrrolizin-7a(5H)-yl)methoxy)pyrido[4,3-d]pyrimidin-4-yl)(methyl)amino)-N,3-dimethylbutanamide] | 1320 | 323 | 701 | 134 | 183 | 103
3 | COC(=O)C1CCN(c2nc(OC[C@@]34CCCN3C[C@H](F)C4)nc3c(F)c(-c4ccc(F)c5sc(N)c(C#N)c45)c(Cl)cc23)CC1 [Example 286, Methyl 1-(7-(2-amino-3-cyano-7-fluorobenzo[b]thiophen-4-yl)-6-chloro-8-fluoro-2-(((2R,7aS)-2-fluorotetrahydro-1H-pyrrolizin-7a(5H)-yl)methoxy)quinazolin-4-yl)piperidine-4-carboxylate] | 106 | 24 | 237 | 15 | 11 | 6
4 | N#Cc1c(N)sc2c(F)ccc(-c3c(Cl)cc4c(N5CCC(C(=O)Oc6ccccc6)CC5)nc(OC[C@@]56CCCN5C[C@H](F)C6)nc4c3F)c12 [Example 287, phenyl 1-(7-(2-amino-3-cyano-7-fluorobenzo[b]thiophen-4-yl)-6-chloro-8-fluoro-2-(((2R,7aS)-2-fluorotetrahydro-1H-pyrrolizin-7a(5H)-yl)methoxy)quinazolin-4-yl)piperidine-4-carboxylate] | 13 | 360 | 104 | 16 | 6 | 170
5 | N#Cc1c(N)sc2c(F)ccc(-c3c(Cl)cc4c(N5CCC(C(=O)Oc6ccccc6F)CC5)nc(OC[C@@]56CCCN5C[C@H](F)C6)nc4c3F)c12 [Example 288, 2-fluorophenyl 1-(7-(2-amino-3-cyano-7-fluorobenzo[b]thiophen-4-yl)-6-chloro-8-fluoro-2-(((2R,7aS)-2-fluorotetrahydro-1H-pyrrolizin-7a(5H)-yl)methoxy)quinazolin-4-yl)piperidine-4-carboxylate] | 24 | 246 | 77 | 20 | 9 | 143
6 | CN(C(=O)C1CCN(c2nc(OC[C@@]34CCCN3C[C@H](F)C4)nc3c(F)c(-c4ccc(F)c5sc(N)c(C#N)c45)c(Cl)cc23)CC1)c1cccnc1 [Example 289, 1-(7-(2-amino-3-cyano-7-fluorobenzo[b]thiophen-4-yl)-6-chloro-8-fluoro-2-(((2R,7aS)-2-fluorotetrahydro-1H-pyrrolizin-7a(5H)-yl)methoxy)quinazolin-4-yl)-N-methyl-N-(pyridin-3-yl)piperidine-4-carboxamide] | 81 | 33 | 271 | 18 | 10 | 5
7 | CN(C(=O)C1CCN(c2nc(OC[C@@]34CCCN3C[C@H](F)C4)nc3c(F)c(-c4ccc(F)c5sc(N)c(C#N)c45)c(Cl)cc23)CC1)c1ccncn1 [Example 290, 1-(7-(2-amino-3-cyano-7-fluorobenzo[b]thiophen-4-yl)-6-chloro-8-fluoro-2-(((2R,7aS)-2-fluorotetrahydro-1H-pyrrolizin-7a(5H)-yl)methoxy)quinazolin-4-yl)-N-methyl-N-(pyrimidin-4-yl)piperidine-4-carboxamide] | 29 | 18 | 142 | 13 | 9 | 10
8 | CCN(C(C)=O)C(=O)CCCN(C)c1nc(OC[C@@]23CCCN2C[C@H](F)C3)nc2c(F)c(-c3ccc(F)c4sc(N)c(C#N)c34)c(Cl)cc12 [Example 291, N-acetyl-4-((7-(2-amino-3-cyano-7-fluorobenzo[b]thiophen-4-yl)-6-chloro-8-fluoro-2-(((2R,7aS)-2-fluorotetrahydro-1H-pyrrolizin-7a(5H)-yl)methoxy)quinazolin-4-yl)(methyl)amino)-N-ethylbutanamide] | 81 | 134 | 65 | 7 | 6 | 12
9 | CN(C(=O)CCCN(C)c1nc(OC[C@@]23CCCN2C[C@H](F)C3)nc2c(F)c(-c3ccc(F)c4sc(N)c(C#N)c34)c(Cl)cc12)C(=O)c1ccn(C)n1 [Example 292, N-(4-((7-(2-amino-3-cyano-7-fluorobenzo[b]thiophen-4-yl)-6-chloro-8-fluoro-2-(((2R,7aS)-2-fluorotetrahydro-1H-pyrrolizin-7a(5H)-yl)methoxy)quinazolin-4-yl)(methyl)amino)butanoyl)-N, 1-dimethyl-1H-pyrazole-3-carboxamide] | 30 | 80 | 27 | 5 | 3 | 11

Now from value to compound:

Row | IC50 [1] [nM] | IC50 [2] [nM] | IC50 [3] [nM] | IC50 (KRas G12S) [nM] | IC50 (KRas G12C) [nM] | IC50 (KRas WT) [nM] | Structure (SMILES)
10 | 428 | 102 | 107 | 14 | 17 | 9 | CCc1c(F)ccc2cc(O)cc(-c3ncc4c(NCC5CC(C(=O)N(C)C(C)=O)C5)nc(OC[C@@]56CCCN5C[C@H](F)C6)nc4c3F)c12 (stereo partly drawn) [Example 280, N-acetyl-3-(((7-(8-ethyl-7-fluoro-3-hydroxynaphthalen-1-yl)-8-fluoro-2-(((2R,7aS)-2-fluorotetrahydro-1H-pyrrolizin-7a(5H)-yl)methoxy)pyrido[4,3-d]pyrimidin-4-yl)amino)methyl)-N-methylcyclobutane-1-carboxamide]
11 | 198 | 41 | 243 | 10 | 9 | 8 | CCc1c(F)ccc2cc(O)cc(-c3ncc4c(NC[C@@H]5C[C@H]5C(=O)N(C)C(C)=O)nc(OC[C@@]56CCCN5C[C@H](F)C6)nc4c3F)c12 [Example 281, trans-N-acetyl-2-(((7-(8-ethyl-7-fluoro-3-hydroxynaphthalen-1-yl)-8-fluoro-2-(((2R,7aS)-2-fluorotetrahydro-1H-pyrrolizin-7a(5H)-yl)methoxy)pyrido[4,3-d]pyrimidin-4-yl)amino)methyl)-N-methylcyclopropane-1-carboxamide]
12 | 39 | 446 | 7 | 5 | 8 | 77 | CCc1c(F)ccc2cc(O)cc(-c3ncc4c(N(C)CCC(C)C(=O)N(C)C(C)=O)nc(OC[C@@]56CCCN5C[C@H](F)C6)nc4c3F)c12 (stereo partly drawn) [Example 284, N-acetyl-4-((7-(8-ethyl-7-fluoro-3-hydroxynaphthalen-1-yl)-8-fluoro-2-(((2R,7aS)-2-fluorotetrahydro-1H-pyrrolizin-7a(5H)-yl)methoxy)pyrido[4,3-d]pyrimidin-4-yl)(methyl)amino)-N,2-dimethylbutanamide]
13 | 4290 | 2420 | 151 | 175 | 882 | 492 | CCc1c(F)ccc2cc(O)cc(-c3ncc4c(N5CCCC(C(=O)N(C)C(C)=O)CC5)nc(OC[C@@]56CCCN5C[C@H](F)C6)nc4c3F)c12 (stereo partly drawn) [Example 285, N-acetyl-1-(7-(8-ethyl-7-fluoro-3-hydroxynaphthalen-1-yl)-8-fluoro-2-(((2R,7aS)-2-fluorotetrahydro-1H-pyrrolizin-7a(5H)-yl)methoxy)pyrido[4,3-d]pyrimidin-4-yl)-N-methylazepane-4-carboxamide]
14 | 4490 | 3870 | 74 | 22 | 61 | 130 | CCc1c(F)ccc2cc(O)cc(-c3ncc4c(N5CCC(C(=O)n6cc(OC)cn6)CC5)nc(OC[C@@]56CCCN5C[C@H](F)C6)nc4c3F)c12 [Example 294, (1-(7-(8-ethyl-7-fluoro-3-hydroxynaphthalen-1-yl)-8-fluoro-2-(((2R,7aS)-2-fluorotetrahydro-1H-pyrrolizin-7a(5H)-yl)methoxy)pyrido[4,3-d]pyrimidin-4-yl)piperidin-4-yl)(4-methoxy-1H-pyrazol-1-yl)methanone]
